Experimental data taken from patent US20240122930A1, “INTEGRIN INHIBITORS AND USES THEREOF IN COMBINATION WITH OTHER AGENTS” (Pliant Therapeutics, Inc., priority 2022, published 2024).
Entries after “also recorded” stand apart in the source; their conditions may differ.

Columns and labels:
[1] = system: patients with idiopathic pulmonary fibrosis (IPF); assay: Phase 2a randomized, double-blind, placebo-controlled trial in IPF; format: in vivo, human; settings: FIG. 36
[2] = system: participants with idiopathic pulmonary fibrosis (IPF); assay: Phase 2a clinical trial ([…]-IPF): Forced Vital Capacity (FVC) spirometry; format: in vivo, human
Method: Study Design and Objectives. […] At Day 1, baseline values were collected.
Data shown from left to right is participants treatment with 40 mg Compound 5, 80 mg Compound 5, 160 mg Compound 5, all participants treated with Compound 5, and participants treated with Placebo. Change from baseline was analyzed using a mixed model for repeated measures with terms for treatment group, SOC (Y/N), visit, baseline value, and treatment-by-visit interaction. An unstructured covariance (UN) structure was used.
[…]-IPF study design and objectives.
The histograms from left to right are 40 mg (n=22) with a LS Mean (SE) change from Baseline in FVC (mL) at Week 12 of −48.6, 80 mg (n=23) with a LS Mean (SE) change from Baseline in FVC (mL) at Week 12 of 22.8, 160 mg (n=22) with a LS Mean (SE) change from Baseline in FVC (mL) at Week 12 of −28.7, 320 mg (n=21) with a LS Mean (SE) change from Baseline in FVC (mL) at Week 12 of 26.8, and placebo (n=31) with a LS Mean (SE) change from Baseline in FVC (mL) at Week 12 of −64.2. Change from baseline in FVC analyzed using a mixed model for repeated measures (MMRM) with terms for treatment group, use of SOC, week and baseline value. FVC=Forced Vital Capacity. mITT=Modified Intent to Treat. * p<0.05. **p<0.01.
At Day 1, baseline values were collected.

[3] = Dose-Dependent Target Engagement (FIG. 12, prior studies); format: in vivo, human
Description: FIG. 12 through FIG. 33 illustrate various details and results from the clinical trial. […] In FIG. 12, BAL refers to bronchoalveolar lavage; pSmad2/Smad2 refers to ratio of phosphorylated Smad2 to total Smad2; and QD refers to once daily. **** refers to p<0.0001.

[4] = system: participants with idiopathic pulmonary fibrosis (IPF); assay: Phase 2a clinical trial: patient-reported cough severity visual analog scale (VAS); format: in vivo, human; settings: 320 mg, weeks 12 and 24, ITT; worsening on placebo
Method: Of interest, patients receiving Compound 5 experienced a positive impact on cough severity, while cough severity in patients receiving placebo worsened over time. […] The data histograms from left to right are 320 mg Compound 5 treatment at week 12, 320 mg Compound 5 treatment at week 24, placebo treatment at week 12, and placebo treatment at week 24. […] Cough VAS measured patient reported cough severity over last 2 weeks on scale of 0-100 mm.

lung Col1a1 expression [5] = assay: Precision cut lung slices, chronic bleomycin exposure, versus and with nintedanib and pirfenidone; format: cell-based, mice (C57BL/6); settings: chronic bleomycin PCLS; for lung slice Col1a1 expression vs DMSO vehicle control slices: 7 days
Method: Mice (C57BL/6) were administered 3 U/kg of bleomycin (Teva Pharmaceuticals; North Wales, PA) on Day 0 and 1 U/kg of bleomycin on days 14, 28, 42 and 56 via oropharyngeal aspiration while under anesthesia. At day 70, 14 days following the final bleomycin insult, precision cut lung slices were obtained. […] The lobes were then subjected to precision slicing to obtain samples for culture using a microtome (Compresstome VF-300-OZ, Precisionary; Greenville, NC). Individual slices were distributed in a multiwell culture plate and cultured for 7 days under control (DMSO) and test compound conditions. The viability of the slices over the course of culturing was confirmed by WST-1 assay of mitochondrial activity. During the culture period, slices in the control group were treated with DMSO and slices in the test group were treated with a DMSO solution of one of: […]

[6] = system: patients with idiopathic pulmonary fibrosis (IPF); assay: Phase 2a randomized, double-blind, placebo-controlled trial in IPF; format: in vivo, human
Description: The exploratory endpoints of the trial measured changes in forced vital capacity (FVC), HRCT-based Quantitative Lung Fibrosis score (QLF), and selected biomarkers over 3 months of treatment.

[7] = system: PRO-C6, Type VI collagen synthesis neoepitope; assay: Phase 2a clinical trial: serum biomarker PRO-C6; format: in vivo, human; settings: IPF participants, 40 to 320 mg, 4 and 12 weeks
Method: Blank columns represent 40 mg Compound 5 dosage. Grid pattern filled columns represent 80 mg Compound 5 dosage. Diagonal line filled columns represent 160 mg Compound 5 dosage. Dot filled columns represent all participants dosed with Compound 5. […] In FIG. 21, LS refers to Least Squares and SEM refers to Standard Error of Mean.
PRO-C3 and PRO-C6, serum biomarkers of type III and VI collagen synthesis, respectively, were previously shown to be elevated in patients with IPF and associated with progressive disease, according to Respir Res. 2019 Jul. 12; 20(1):148. Doi: 10.1186/s12931-019-1118-7, which is herein incorporated by reference in its entirety. Change from baseline was analyzed using a mixed model for repeated measures with terms for treatment group, visit, baseline value, and treatment-by-visit interaction. LS refers to Least Squares; SE refers to Standard Error.

lung Col1a1 expression [8] = assay: Precision cut lung slices, chronic bleomycin exposure, Col1a1 expression; format: cell-based, mice (C57BL/6); settings: chronic bleomycin PCLS, 7 days culture
Method: Mice (C57BL/6) were administered 3 U/kg of bleomycin (Teva Pharmaceuticals; North Wales, PA) on Day 0 and 1 U/kg of bleomycin on days 14, 28, 42 and 56 via oropharyngeal aspiration while under anesthesia. At day 70, 14 days after the final bleomycin insult, precision cut lung slices were obtained. […] The lobes were then subjected to precision slicing to obtain samples for culture using a microtome (Compresstome VF-300-OZ, Precisionary; Greenville, NC). Individual slices were distributed in a multiwell culture plate and cultured for 7 days under control (DMSO) and test compound conditions. The viability of the slices over the course of culturing was confirmed by WST-1 assay of mitochondrial activity. […] Compound 5; and the small molecule ALK5 inhibitor. […] Compound 5 was run at approximate IC50 for inhibition of TGF-beta activation by αVβ6.

[9] = 12 weeks, 40/80/160 mg once daily

**Q.** Which “patients with FVC improvement at week 12 who maintained improvement in FVC at week 24” value [1] does the source give for `COCCN(CCCCc1ccc2c(n1)NCCC2)CC[C@H](Nc1ncnc2ccccc12)C(=O)O` [Compound 5, (S)-4-((2-methoxyethyl) (4-(5,6,7,8-tetrahydro-1,8-naphthyridin-2-yl)butyl)amino)-2-(quinazolin-4-ylamino) butanoic acid] here?
**A.** The value was “About 89%”.

**Q.** And the “LS Mean (SE) change from Baseline in FVC at Week 12, mITT, FIG. 27” value ([2]; 40 mg (n=22), placebo (n=31) −64.2)?
**A.** The value was -48.6 mL.

**Q.** What about the “Treatment effect on FVC with and without use of standard-of-care agents” value ([2]; 12 weeks) of the same molecule?
**A.** The value was “evident; also recorded: observed”.

**Q.** What about the “Target engagement” value [3] of the same molecule?
**A.** Its value is “dose dependent”.

**Q.** What about the “Patient-reported cough severity (VAS), change from baseline” value [4] of the same molecule?
**A.** The value was “reduced”.

**Q.** And the “lung Col1a1 expression vs DMSO vehicle control slices” value (lung Col1a1 expression [5]; 7 days culture, single agents)?
**A.** Its value is “substantial, statistically significant (p<0.01 vs vehicle) decrease”.

**Q.** What about the “lung slice Col1a1 expression vs DMSO vehicle control slices” value (lung Col1a1 expression [5]; in combination with nintedanib) of the same molecule?
**A.** The value was “substantial, statistically significant (p<0.01 vs vehicle) decrease”.

**Q.** And the “lung slice Col1a1 expression vs DMSO vehicle control slices” value (lung Col1a1 expression [5]; in combination with pirfenidone)?
**A.** The value was “substantial, statistically significant (p<0.01 vs vehicle) decrease”.

**Q.** And the tolerability ([6]; 40 mg, 80 mg, 160 mg once daily, 12 weeks)?
**A.** The tolerability was “well tolerated”.

**Q.** What about the “increase in FVC relative to baseline” value ([6]; 80 mg treatment group, 12 weeks) of the same molecule?
**A.** Its value is “+24.6 mL”.

**Q.** And the “severity of most treatment emergent adverse events (TEAE)” value [6, 9]?
**A.** Its value is “mild or moderate”.

**Q.** And the “treatment related deaths or drug related serious adverse events (SAE)” value [6, 9]?
**A.** The value was “No treatment related deaths or drug related serious adverse events”.

**Q.** And the “plasma concentrations vs dose” value ([6]; 40/80/160 mg once daily)?
**A.** The value was “generally dose proportional increases”.

**Q.** What about the “patients who completed 12 weeks of treatment with no discontinuations due to adverse events” value ([6]; 67 patients treated, 40/80/160 mg once daily) of the same molecule?
**A.** Its value is 97%.

**Q.** What about the serious adverse events ([6]; administration of Compound 5 alone, patients) of the same molecule?
**A.** The serious adverse events was “did not result in serious adverse events”.

**Q.** What about the “serum biomarkers of collagen synthesis” value ([6]; change from baseline at 4 and 12 weeks vs. placebo, FIG. 33) of the same molecule?
**A.** Its value is “reduced”.

**Q.** What about the “treatment-emergent adverse events (TEAEs)” value ([6]; combinations with nintedanib or with pirfenidone, patients) of the same molecule?
**A.** The value was “resulted in treatment-emergent adverse events”.

**Q.** And the “reduction in FVC decline over 12 weeks versus placebo” value ([6]; pooled Compound 5 groups)?
**A.** The value was “approximately 80%”.

**Q.** What about the “circulating biomarkers integrin beta-6 (ITGB6) and Type III collagen synthesis neoepitope (PRO-C3) levels” value ([6]; relative to the placebo group, FIG. 40) of the same molecule?
**A.** Its value is “reduced”.

**Q.** And the “Serum PRO-C6, change from baseline relative to placebo” value [7]?
**A.** The value was “decreased; also recorded: reduced”.

**Q.** And the “lung Col1a1 expression, normalized to DMSO control slices” value (lung Col1a1 expression [8])?
**A.** Its value is “decreased lung Col1a1 expression substantially”.
